Reference: patent US9579314B2 (priority 2015, dated 2017)

Assays:
Human M3 receptor = Human M3 receptor (Homo sapiens, UniProt P20309); conditions: read-out: M3 binding affinity
Human β2 adrenoceptor = Human β2 adrenoceptor (Homo sapiens, UniProt P07550); conditions: read-out: B2 binding affinity
Human β2 adrenoceptor, sequence (P07550 whole entry): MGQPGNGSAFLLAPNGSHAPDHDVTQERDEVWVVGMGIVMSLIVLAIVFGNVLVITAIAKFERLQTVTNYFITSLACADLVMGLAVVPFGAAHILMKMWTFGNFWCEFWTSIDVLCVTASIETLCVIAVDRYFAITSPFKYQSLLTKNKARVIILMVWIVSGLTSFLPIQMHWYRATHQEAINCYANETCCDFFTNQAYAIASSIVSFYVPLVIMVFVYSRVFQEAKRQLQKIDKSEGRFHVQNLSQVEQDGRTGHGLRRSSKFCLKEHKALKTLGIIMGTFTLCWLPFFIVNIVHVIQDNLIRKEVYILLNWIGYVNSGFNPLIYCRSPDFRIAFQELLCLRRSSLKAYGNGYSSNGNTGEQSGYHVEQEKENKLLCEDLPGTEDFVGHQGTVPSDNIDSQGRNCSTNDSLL

Human M3 receptor, sequence (P20309 whole entry): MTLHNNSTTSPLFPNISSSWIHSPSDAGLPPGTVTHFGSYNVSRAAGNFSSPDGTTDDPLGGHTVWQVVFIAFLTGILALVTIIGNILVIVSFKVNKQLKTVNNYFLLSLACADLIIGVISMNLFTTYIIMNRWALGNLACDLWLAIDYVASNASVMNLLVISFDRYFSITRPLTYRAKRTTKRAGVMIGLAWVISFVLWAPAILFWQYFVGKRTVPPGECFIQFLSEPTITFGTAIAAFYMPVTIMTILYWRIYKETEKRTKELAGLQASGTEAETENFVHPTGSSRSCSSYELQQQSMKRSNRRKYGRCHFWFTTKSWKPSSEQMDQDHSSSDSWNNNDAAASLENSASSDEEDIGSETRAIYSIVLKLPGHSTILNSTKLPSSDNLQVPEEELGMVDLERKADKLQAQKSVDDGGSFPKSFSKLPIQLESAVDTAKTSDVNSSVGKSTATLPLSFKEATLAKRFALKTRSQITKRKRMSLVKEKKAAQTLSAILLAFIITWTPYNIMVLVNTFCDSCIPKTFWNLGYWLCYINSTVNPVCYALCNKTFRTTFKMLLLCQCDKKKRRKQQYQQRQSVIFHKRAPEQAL

| SMILES | IC50 (Human M3 receptor) [nM] | IC50 (Human β2 adrenoceptor) [nM] |
| --- | --- | --- |
| O=C(COc1cccc([C@](O)(C(=O)OCC2CCN(Cc3ccccc3)CC2)c2ccccc2)c1)N1CCC2(CC1)CCN(C(=O)c1ccc(CCNC[C@H](O)c3ccc(O)c4[nH]c(=O)ccc34)cc1)CC2 [Compound 95, (1-benzylpiperidin-4-yl)methyl (S)-2-hydroxy-2-(3-(2-(9-(4-(2-(((R)-2-hydroxy-2-(8-hydroxy-2-oxo-1,2-dihydroquinolin-5-yl)ethyl)amino)ethyl)benzoyl)-3,9-diazaspiro[5.5]undecan-3-yl)-2-oxoethoxy)phenyl)-2-phenylacetate] | < 0.3 | < 0.3 |
| O=C(COc1cccc([C@](O)(C(=O)OCC2CCN(Cc3ccccc3)CC2)c2ccccc2)c1)N1CCC2(CC1)CN(C(=O)c1ccc(CCNC[C@H](O)c3ccc(O)c4[nH]c(=O)ccc34)cc1)C2 [Compound 96, (1-benzylpiperidin-4-yl)methyl (S)-2-hydroxy-2-(3-(2-(2-(4-(2-(((R)-2-hydroxy-2-(8-hydroxy-2-oxo-1,2-dihydroquinolin-5-yl)ethyl)amino)ethyl)benzoyl)-2,7-diazaspiro[3.5]nonan-7-yl)-2-oxoethoxy)phenyl)-2-phenylacetate] | < 0.3 | < 0.3 |
| O=C(COc1cccc([C@](O)(C(=O)OCC2CCN(Cc3ccccc3)CC2)c2ccccc2)c1)NCC1CCN(C(=O)c2ccc(CCNC[C@H](O)c3ccc(O)c4[nH]c(=O)ccc34)cc2)CC1 [Compound 97, (1-benzylpiperidin-4-yl)methyl (S)-2-hydroxy-2-(3-(2-(((1-(4-(2-(((R)-2-hydroxy-2-(8-hydroxy-2-oxo-1,2-dihydroquinolin-5-yl)ethyl)amino)ethyl)benzoyl)piperidin-4-yl)methyl)amino)-2-oxoethoxy)phenyl)-2-phenylacetate] | 0.3 to 3 | < 0.3 |
| O=C(COc1cccc([C@](O)(C(=O)OCC2CCN(Cc3ccccc3)CC2)c2ccccc2)c1)N1CC2(CCCN(C(=O)c3ccc(CCNC[C@H](O)c4ccc(O)c5[nH]c(=O)ccc45)cc3)C2)C1 [Compound 98, (1-benzylpiperidin-4-yl)methyl (S)-2-hydroxy-2-(3-(2-(6-(4-(2-(((R)-2-hydroxy-2-(8-hydroxy-2-oxo-1,2-dihydroquinolin-5-yl)ethyl)amino)ethyl)benzoyl)-2,6-diazaspiro[3.5]nonan-2-yl)-2-oxoethoxy)phenyl)-2-phenylacetate] | 0.3 to 3 | 0.3 to 3 |
| O=C(COc1cccc([C@](O)(C(=O)OCC2CCN(Cc3ccccc3)CC2)c2ccccc2)c1)N1CCCC2(CCN(C(=O)c3ccc(CCNC[C@H](O)c4ccc(O)c5[nH]c(=O)ccc45)cc3)CC2)C1 [Compound 99, (1-benzylpiperidin-4-yl)methyl (S)-2-hydroxy-2-(3-(2-(9-(4-(2-(((R)-2-hydroxy-2-(8-hydroxy-2-oxo-1,2-dihydroquinolin-5-yl)ethyl)amino)ethyl)benzoyl)-2,9-diazaspiro[5.5]undecan-2-yl)-2-oxoethoxy)phenyl)-2-phenylacetate] | 0.3 to 3 | 0.3 to 3 |
| O=C(COc1cccc([C@](O)(C(=O)OCC2CCN(Cc3ccccc3)CC2)c2ccccc2)c1)N1CCOC2(CCN(C(=O)c3ccc(CCNC[C@H](O)c4ccc(O)c5[nH]c(=O)ccc45)cc3)CC2)C1 [Compound 100, (1-benzylpiperidin-4-yl)methyl (S)-2-hydroxy-2-(3-(2-(9-(4-(2-(((R)-2-hydroxy-2-(8-hydroxy-2-oxo-1,2-dihydroquinolin-5-yl)ethyl)amino)ethyl)benzoyl)-1-oxa-4,9-diazaspiro[5.5]undecan-4-yl)-2-oxoethoxy)phenyl)-2-phenylacetate] | < 0.3 | 0.3 to 3 |
| O=C(COc1cccc([C@](O)(C(=O)OCC2CCN(Cc3ccccc3)CC2)c2ccccc2)c1)NC1CN(C(=O)c2ccc(CCNC[C@H](O)c3ccc(O)c4[nH]c(=O)ccc34)cc2)C1 [Compound 101, (1-benzylpiperidin-4-yl)methyl (S)-2-hydroxy-2-(3-(2-((1-(4-(2-(((R)-2-hydroxy-2-(8-hydroxy-2-oxo-1,2-dihydroquinolin-5-yl)ethyl)amino)ethyl)benzoyl)azetidin-3-yl)amino)-2-oxoethoxy)phenyl)-2-phenylacetate] | < 0.3 | < 0.3 |
| O=C(NC1CN(C(=O)COc2cccc([C@](O)(C(=O)OCC3CCN(Cc4ccccc4)CC3)c3ccccc3)c2)C1)c1ccc(CCNC[C@H](O)c2ccc(O)c3[nH]c(=O)ccc23)cc1 [Compound 102, (1-benzylpiperidin-4-yl)methyl (S)-2-hydroxy-2-(3-(2-(3-(4-(2-(((R)-2-hydroxy-2-(8-hydroxy-2-oxo-1,2-dihydroquinolin-5-yl)ethyl)amino)ethyl)benzamido)azetidin-1-yl)-2-oxoethoxy)phenyl)-2-phenylacetate] | < 0.3 | < 0.3 |
| O=C(COc1cccc([C@](O)(C(=O)OCC2CCN(Cc3ccccc3)CC2)c2ccccc2)c1)NCCNC(=O)c1ccc(CCNC[C@H](O)c2ccc(O)c3[nH]c(=O)ccc23)cc1 [Compound 103, (1-benzylpiperidin-4-yl)methyl (S)-2-hydroxy-2-(3-(2-((2-(4-(2-(((R)-2-hydroxy-2-(8-hydroxy-2-oxo-1,2-dihydroquinolin-5-yl)ethyl)amino)ethyl)benzamido)ethyl)amino)-2-oxoethoxy)phenyl)-2-phenylacetate] | < 0.3 | 0.3 to 3 |
| O=C(COc1cccc([C@](O)(C(=O)OCC2CCN(Cc3ccccc3)CC2)c2ccccc2)c1)N[C@@H]1CCN(C(=O)c2ccc(CCNC[C@H](O)c3ccc(O)c4[nH]c(=O)ccc34)cc2)C1 [Compound 104, (1-benzylpiperidin-4-yl)methyl (S)-2-hydroxy-2-(3-(2-(((R)-1-(4-(2-(((R)-2-hydroxy-2-(8-hydroxy-2-oxo-1,2-dihydroquinolin-5-yl)ethyl)amino)ethyl)benzoyl)pyrrolidin-3-yl)amino)-2-oxoethoxy)phenyl)-2-phenylacetate] | < 0.3 | 0.3 to 3 |
| O=C(COc1cccc([C@](O)(C(=O)OCC2CCN(Cc3ccccc3)CC2)c2ccccc2)c1)N[C@@H]1CCCN(C(=O)c2ccc(CCNC[C@H](O)c3ccc(O)c4[nH]c(=O)ccc34)cc2)C1 [Compound 105, (1-benzylpiperidin-4-yl)methyl (S)-2-hydroxy-2-(3-(2-(((R)-1-(4-(2-(((R)-2-hydroxy-2-(8-hydroxy-2-oxo-1,2-dihydroquinolin-5-yl)ethyl)amino)ethyl)benzoyl)piperidin-3-yl)amino)-2-oxoethoxy)phenyl)-2-phenylacetate] | 0.3 to 3 | 0.3 to 3 |
| O=C(COc1cccc([C@](O)(C(=O)OCC2CCN(Cc3ccccc3)CC2)c2ccccc2)c1)N[C@H]1CCCN(C(=O)c2ccc(CCNC[C@H](O)c3ccc(O)c4[nH]c(=O)ccc34)cc2)C1 [Compound 106, (1-benzylpiperidin-4-yl)methyl (S)-2-hydroxy-2-(3-(2-(((S)-1-(4-(2-(((R)-2-hydroxy-2-(8-hydroxy-2-oxo-1,2-dihydroquinolin-5-yl)ethyl)amino)ethyl)benzoyl)piperidin-3-yl)amino)-2-oxoethoxy)phenyl)-2-phenylacetate] | 0.3 to 3 | 0.3 to 3 |
| O=C(COc1cccc([C@](O)(C(=O)OCC2CCN(Cc3ccccc3)CC2)c2ccccc2)c1)N[C@H]1CCN(C(=O)c2ccc(CCNC[C@H](O)c3ccc(O)c4[nH]c(=O)ccc34)cc2)C1 [Compound 107, (1-benzylpiperidin-4-yl)methyl (S)-2-hydroxy-2-(3-(2-(((S)-1-(4-(2-(((R)-2-hydroxy-2-(8-hydroxy-2-oxo-1,2-dihydroquinolin-5-yl)ethyl)amino)ethyl)benzoyl)pyrrolidin-3-yl)amino)-2-oxoethoxy)phenyl)-2-phenylacetate] | 0.3 to 3 | < 0.3 |
| O=C(N[C@H]1CCCN(C(=O)COc2cccc([C@](O)(C(=O)OCC3CCN(Cc4ccccc4)CC3)c3ccccc3)c2)C1)c1ccc(CCNC[C@H](O)c2ccc(O)c3[nH]c(=O)ccc23)cc1 [Compound 108, (1-benzylpiperidin-4-yl)methyl (S)-2-hydroxy-2-(3-(2-((S)-3-(4-(2-(((R)-2-hydroxy-2-(8-hydroxy-2-oxo-1,2-dihydroquinolin-5-yl)ethyl)amino)ethyl)benzamido)piperidin-1-yl)-2-oxoethoxy)phenyl)-2-phenylacetate] | 0.3 to 3 | 0.3 to 3 |
| O=C(N[C@H]1CCN(C(=O)COc2cccc([C@](O)(C(=O)OCC3CCN(Cc4ccccc4)CC3)c3ccccc3)c2)C1)c1ccc(CCNC[C@H](O)c2ccc(O)c3[nH]c(=O)ccc23)cc1 [Compound 109, (1-benzylpiperidin-4-yl)methyl (S)-2-hydroxy-2-(3-(2-((S)-3-(4-(2-(((R)-2-hydroxy-2-(8-hydroxy-2-oxo-1,2-dihydroquinolin-5-yl)ethyl)amino)ethyl)benzamido)pyrrolidin-1-yl)-2-oxoethoxy)phenyl)-2-phenylacetate] | 0.3 to 3 | 0.3 to 3 |
| O=C(N[C@@H]1CCN(C(=O)COc2cccc([C@](O)(C(=O)OCC3CCN(Cc4ccccc4)CC3)c3ccccc3)c2)C1)c1ccc(CCNC[C@H](O)c2ccc(O)c3[nH]c(=O)ccc23)cc1 [Compound 110, (1-benzylpiperidin-4-yl)methyl (S)-2-hydroxy-2-(3-(2-((R)-3-(4-(2-(((R)-2-hydroxy-2-(8-hydroxy-2-oxo-1,2-dihydroquinolin-5-yl)ethyl)amino)ethyl)benzamido)pyrrolidin-1-yl)-2-oxoethoxy)phenyl)-2-phenylacetate] | 0.3 to 3 | 0.3 to 3 |
| O=C(COc1cccc([C@](O)(C(=O)OCC2CCN(Cc3ccccc3)CC2)c2ccccc2)c1)N1C[C@H]2CCN(C(=O)c3ccc(CCNC[C@H](O)c4ccc(O)c5[nH]c(=O)ccc45)cc3)[C@H]2C1 [Compound 111, (1-benzylpiperidin-4-yl)methyl (S)-2-hydroxy-2-(3-(2-((3aR,6aR)-1-(4-(2-(((R)-2-hydroxy-2-(8-hydroxy-2-oxo-1,2-dihydroquinolin-5-yl)ethyl)amino)ethyl)benzoyl)hexahydropyrrolo[3,4-b]pyrrol-5(1H)-yl)-2-oxoethoxy)phenyl)-2-phenylacetate] | 0.3 to 3 | 0.3 to 3 |
